# Assay results reported in publication PMC9492542, “Brain-restricted mTOR inhibition with binary pharmacology” (Nature, 2022).
# “And” between values parts separate entries of the source, which are not always exact repeats. Equal values may be shown once.
# Experiments:
# [1] = Cellular activity of FKBP-binding bifunctional kinase inhibitors, with or without RapaBlock; format: cell-based
# K562 CRISPRi cells = test: Cellular dye (TAMRA) retention assay by flow cytometry; format: cell-based
# Procedure: Untransduced (no virus or sgRNA^–) and sgRNA expression vector-transduced (sgRNA^+) K562 CRISPRi cells were mixed in a 1:1 ratio, plated in 48-well plates and incubated overnight. Cell mixtures were treated with the indicated TAMRA-linked compounds (300 μl final volume) and incubated for 24 h. Plates were placed over ice and 200 μl of each compound–cell mixture was transferred to a 96-well U-bottom plate. Cells were pelleted at 500g for 5 min and subsequently washed 2× with ice-cold FACS buffer (PBS + 1% BSA + 0.1% NaN3). Cells were resuspended in 200 μl of ice-cold FACS buffer and assessed using an Attune NxT (Thermo Fisher Scientific). Relative uptake of TAMRA-linked compounds was determined by comparing TAMRA fluorescence (561-nm excitation laser and 585/16-nm emission filter) between sgRNA^– and sgRNA^+ cells within each well.
# MTORC1 = details: read-out: Kd4 (drug binding to MTORC1 without FKBP); ref Banaszynski et al, PMID 15796538; cited from earlier work
# human PBMCs [2] = test: Proliferation of anti-CD3/anti-CD28 stimulated PBMCs (120 h); format: cell-based; set-up: PBMC cell proliferation: unit not given here
# human PBMCs [3] = test: IL-2 secretion of stimulated PBMCs (sandwich ELISA); format: cell-based; set-up: unit not given here
# [4] = 0.005081 nM Rapamycin, +10 µM RapaBlock
# [5] = 0.005081 nM Rapamycin, No RapaBlock
# [6] = 0.015242 nM Rapamycin, +10 µM RapaBlock
# [7] = 0.015242 nM Rapamycin, No RapaBlock
# [8] = 0.045725 nM Rapamycin, +10 µM RapaBlock
# [9] = 0.045725 nM Rapamycin, No RapaBlock
# [10] = 0.137174 nM Rapamycin, No RapaBlock
# [11] = 0.411523 nM Rapamycin, +10 µM RapaBlock
# [12] = 0.411523 nM Rapamycin, No RapaBlock
# [13] = 1.23457 nM Rapamycin, No RapaBlock
# [14] = 3.7037 nM Rapamycin, +10 µM RapaBlock
# [15] = 3.7037 nM Rapamycin, No RapaBlock
# [16] = 11.1111 nM Rapamycin, +10 μM RapaBlock
# [17] = 11.1111 nM Rapamycin, No RapaBlock
# [18] = 33.3333 nM Rapamycin, +10 μM RapaBlock
# [19] = 33.3333 nM Rapamycin, No RapaBlock
# [20] = 100 nM Rapamycin, +10 μM RapaBlock
smiles,measurement,setting,value
CCC(C)(C)C(=O)C(=O)N1CCCC[C@H]1C(=O)O[C@H](CCc1ccc(OC)c(OC)c1)c1cccc(NC(=O)CCC(=O)N2CCN(c3cc(Nc4ncc(C(=O)Nc5c(C)cccc5Cl)s4)nc(C)n3)CC2)c1 [SLF-Dasatinib],kinase inhibitor activity in cells,[1],did not have kinase inhibitor activity in cells
CO[C@H]1C[C@@H](C)C/C(C)=C/[C@@H](CCCC(=O)N2CCN(C(=O)c3ccc(C(=O)[O-])c(-c4c5ccc(=[N+](C)C)cc-5oc5cc(N(C)C)ccc45)c3)CC2)C(=O)C[C@H](O)[C@@H](C)[C@@H](/C(C)=C/[C@@H]2CC[C@@H](O)[C@H](OC)C2)OC(=O)[C@@H]2CCCCN2C(=O)C(=O)[C@]2(O)O[C@H]1[C@@H](OC)C[C@H]2C [FK-TAMRA],"Median TAMRA signal, fold change sgRNA+/sgRNA-","K562 CRISPRi cells; FKBP12 sg1, 1 nM compound",0.94 ×
same,"Median TAMRA signal, fold change sgRNA+/sgRNA-","K562 CRISPRi cells; FKBP12 sg1, 100 nM compound",0.17 ×
same,"Median TAMRA signal, fold change sgRNA+/sgRNA-","K562 CRISPRi cells; FKBP12 sg2, 1 nM compound",0.95 ×
same,"Median TAMRA signal, fold change sgRNA+/sgRNA-","K562 CRISPRi cells; FKBP12 sg2, 100 nM compound",0.23 ×
same,"Median TAMRA signal, fold change sgRNA+/sgRNA-","K562 CRISPRi cells; NegCtrl sg, 1 nM compound",1.00 ×
same,"Median TAMRA signal, fold change sgRNA+/sgRNA-","K562 CRISPRi cells; NegCtrl sg, 100 nM compound",1.00 ×
CO[C@H]1C[C@@H]2CC[C@@H](C)[C@@](O)(O2)C(=O)C(=O)N2CCCC[C@H]2C(=O)O[C@H]([C@H](C)C[C@@H]2CC[C@@H](O)[C@H](OC)C2)CC(=O)[C@H](C)/C=C(\C)[C@@H](O)[C@@H](OC)C(=O)[C@H](C)C[C@H](C)/C=C/C=C/C=C/1C [Rapamycin],Kd,MTORC1,26 µM
same,PBMC cell proliferation,human PBMCs [2]; [4],90.8
same,PBMC cell proliferation,human PBMCs [2]; [5],89.3 and 86.4 and 86.7
same,PBMC cell proliferation,human PBMCs [2]; [6],94.6
same,PBMC cell proliferation,human PBMCs [2]; [7],70.2 and 84.2 and 80.1
same,PBMC cell proliferation,human PBMCs [2]; [8],99.9
same,PBMC cell proliferation,human PBMCs [2]; [9],58.9 and 71.7 and 68.2
same,PBMC cell proliferation,human PBMCs [2]; [10],55.1 and 66 and 63.4
same,PBMC cell proliferation,human PBMCs [2]; [11],100.4
same,PBMC cell proliferation,human PBMCs [2]; [12],48.5 and 57.3 and 55.8
same,PBMC cell proliferation,human PBMCs [2]; [13],43.2 and 50.6 and 45.3
same,PBMC cell proliferation,human PBMCs [2]; [14],92 and 97.7
same,PBMC cell proliferation,human PBMCs [2]; [15],44.5 and 45.4 and 43.4
same,PBMC cell proliferation,human PBMCs [2]; [16],99 and 90.8 and 96.3
same,PBMC cell proliferation,human PBMCs [2]; [17],42 and 45.8 and 42.6
same,PBMC cell proliferation,human PBMCs [2]; [18],96.2 and 95.1 and 85.5
same,PBMC cell proliferation,human PBMCs [2]; [19],41.2 and 44.7 and 42.3
same,PBMC cell proliferation,human PBMCs [2]; [20],73.2 and 69.6 and 68.3
same,PBMC cell proliferation,"human PBMCs [2]; 100 nM Rapamycin, No RapaBlock",32 and 34 and 31.5
same,IL-2 secretion,human PBMCs [3]; [4],3684.01 and 3841.04 and 3311.59
same,IL-2 secretion,human PBMCs [3]; [5],3505.26 and 3941.8 and 3950.69
same,IL-2 secretion,human PBMCs [3]; [6],3960.64 and 4023.71 and 3669.35
same,IL-2 secretion,human PBMCs [3]; [7],3568.59 and 3802.04 and 3829
same,IL-2 secretion,human PBMCs [3]; [8],3856.22 and 4056.95 and 3791.84
same,IL-2 secretion,human PBMCs [3]; [9],3351.9 and 3536.4 and 3552.37
same,IL-2 secretion,"human PBMCs [3]; 0.137174 nM Rapamycin, +10 µM RapaBlock",4033.13 and 3577.76 and 4020.83
same,IL-2 secretion,human PBMCs [3]; [10],2937.87 and 3159.28 and 3403.45
same,IL-2 secretion,human PBMCs [3]; [11],4004.34 and 3499.5 and 3861.19
same,IL-2 secretion,human PBMCs [3]; [12],2246.17 and 2618.32 and 2523.84
same,IL-2 secretion,"human PBMCs [3]; 1.23457 nM Rapamycin, +10 µM RapaBlock",4301.65 and 4395.86 and 4103.8
same,IL-2 secretion,human PBMCs [3]; [13],1538.76 and 1946.24 and 1803.35
same,IL-2 secretion,human PBMCs [3]; [14],4066.89 and 3684.01 and 4230.73
same,IL-2 secretion,human PBMCs [3]; [15],1476.21 and 1624.34 and 1751.53
same,IL-2 secretion,human PBMCs [3]; [16],4063.23 and 3946.51 and 4144.88
same,IL-2 secretion,human PBMCs [3]; [17],1251.92 and 1234.65 and 1398.74
same,IL-2 secretion,human PBMCs [3]; [18],4013.77 and 3518.61 and 4247.74
same,IL-2 secretion,human PBMCs [3]; [19],908.82 and 1132.58 and 1090.71
same,IL-2 secretion,human PBMCs [3]; [20],4023.19 and 3609.68 and 3592.67
same,IL-2 secretion,"human PBMCs [3]; 100 nM Rapamycin, No RapaBlock",580.372 and 339.335 and 575.923
